Laboratory results as given in US20240175865A1, “IMPROVED PROCESSES FOR RATIONALLY-DESIGNING AND PRODUCING BIOMOLECULES” (priority 2020, published 2024).
Like-named read-outs stand apart in the source and are kept apart here.

How the values were obtained:
[1] = target: T1, Escherichia coli EF-Tu, unmodified (SEQ ID NO: 3) (Escherichia coli, UniProt P0CE47); experiment: Nucleotide dissociation rate, stopped-flow, unmodified EF-Tu; type: binding; settings: 20° C., TAKM7
T1 construct: His6 tag (C-terminal SHHHHHH in the listing) (C)

[2] = target: T2, Streptococcus pneumoniae MalX variant T243C, MDCC conjugate (parent MalX SEQ ID NO: 1) (Streptococcus pneumoniae serotype 4, UniProt P59213, I417L/S91N/T250C); experiment: biochemical; type: binding
T2 construct: made in house; host or cells: Escherichia coli BL21(DE3) gold

[3] = target: Streptococcus pneumoniae MalX variant A174C, MDCC conjugate (parent MalX SEQ ID NO: 1) (Streptococcus pneumoniae, UniProt P59213, A181C); type: binding; settings: 1 μM biosensor
[4] = target: Streptococcus pneumoniae MalX variant E312C, MDCC conjugate (parent MalX SEQ ID NO: 1) (Streptococcus pneumoniae, UniProt P59213, E319C); type: binding; settings: 1 μM biosensor
[5] = target: Streptococcus pneumoniae MalX, unlabeled protein (SEQ ID NO: 1); settings: unlabeled protein (ABBOTT et al. 2010); read-out: measured affinity (KD); cited from earlier work
[6] = test system: Yersinia enterocolitica TogB, unmodified protein (SEQ ID NO: 2); settings: isothermal titration calorimetry; cited from earlier work
[7] = test system: Yersinia enterocolitica TogB, unmodified protein (SEQ ID NO: 2); settings: UV-difference spectroscopy; cited from earlier work
[8] = target: T2, Streptococcus pneumoniae MalX variant T243C, MDCC conjugate (parent MalX SEQ ID NO: 1); type: binding; settings: 1 μM biosensor, 20 μM maltose

Nc1nc2c(ncn2[C@@H]2O[C@H](COP(=O)(O)OP(=O)(O)O)[C@@H](O)[C@H]2O)c(=O)[nH]1 [GDP, guanosine diphosphate]
koff ([1]; mantGDP complex mixed with excess GTP/GDP, read-out: GDP Dissociation Rate Koff): 0.002 ± 0.001 s⁻¹

Nc1nc2c(ncn2[C@@H]2O[C@H](COP(=O)(O)OP(=O)(O)OP(=O)(O)O)[C@@H](O)[C@H]2O)c(=O)[nH]1 [GTP, guanosine triphosphate]
koff ([1]; mantGTP complex mixed with excess GTP/GDP, read-out: GTP Dissociation Rate koff): 0.04 ± 0.01 s⁻¹

OC[C@H]1O[C@H](O[C@H]2[C@H](O)[C@@H](O)[C@@H](O[C@H]3[C@H](O)[C@@H](O)C(O)O[C@@H]3CO)O[C@@H]2CO)[C@H](O)[C@@H](O)[C@@H]1O (stereo partly shown) [M3, Maltotriose]
Kd [2]: 0.6 ± 0.2 µM
fluorescence change upon binding M3 ([3]; 20 μM M3): did not show a fluorescence change
fluorescence change upon binding M3 ([4]; 20 μM M3): did not show a fluorescence change
Kd [5]: 0.8 ± 0.125 µM

O=C(O)[C@H]1O[C@H](O[C@@H]2[C@H](O)[C@@H](O)C(O)O[C@@H]2C(=O)O)[C@H](O)[C@@H](O)[C@H]1O (stereo partly shown) [digalUA, digalacturonic acid]
Kd [6]: 16 ± 2 µM
Kd [7]: 11.8 ± 0.5 µM

OC[C@H]1O[C@H](O[C@H]2[C@H](O)[C@@H](O)C(O)O[C@@H]2CO)[C@H](O)[C@@H](O)[C@@H]1O (stereo partly shown) [maltose, Maltose]
fluorescence change in presence of non-specific ligand (maltose) ([3]; 20 μM maltose): little to no fluorescence change
fluorescence change in presence of non-specific ligand (maltose) [8]: little to no fluorescence change
fluorescence change in presence of non-specific ligand (maltose) ([4]; 20 μM maltose): little to no fluorescence change

O=C(O)C1=C[C@H](O)[C@@H](O)[C@@H](O[C@@H]2[C@H](O)[C@@H](O)C(O)O[C@@H]2C(=O)O)O1 (stereo partly shown) [unsatdigalUA, 4,5-unsaturated digalacturonic acid]
Kd [6]: 5 ± 1 µM
Kd [7]: 3.2 ± 0.1 µM
